Results: patent US20220033407A1, “N-(pyridin-2-ylsulfonyl)cyclopropanecarboxamide Derivatives and their Use in the Treatment of Disease” (NOVARTIS AG, priority 2018, published 2022)

Tests used:
delF508-CFTR-HRP = molecular target: T1, delF508-CFTR-HRP (Homo sapiens, UniProt P13569, DEL508-508); experiment: Measurement of delF508-CFTR-HRP surface expression in CFBE41o- cells (HRP luminescence); type: cell-based; details: for Emax: CFBE41o-, read-out: DelF508-CFTR-HRP Amax %; for EC50: mean of at least two replicates;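 for DelF508-CFTR-HRP Amax %: percent efficacy relative to a reference CFTR corrector compound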
T1 construct: expressed in transfected cells
Method in brief: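 Stably transfected CFBE41o- cells carrying HRP in the fourth extracellular loop of delF508-CFTR, induced with 500 ng/mL doxycycline for 48 h, then compound-treated 24 h at 37° C (10-point, 3-fold, top 10 μM). Surface HRP detected by luminescent substrate; EC50 from logistic fit, triplicates, normalized to lowest-concentration median.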

delF508-CFTR = molecular target: T2, delF508-CFTR (Homo sapiens, UniProt P13569, DEL508-508); experiment: delF508-CFTR functional activity in primary human bronchial epithelial cells (HBECs), Multi-Transepithelial Clamp Circuit (MTECC-24) assay, equivalent short circuit current; type: cell-based; details: primary CF HBECs; for MTECC24 CFHBEC-Amax %: relative to reference combination 2 μM 3-(6-(1-(2,2-difluorobenzo[d][1,3]dioxol-5-yl)cyclopropane-1-carboxamido)-3-methylpyridin-2-yl)benzoic acid (24 h) + 0.5 μM N-(2,4-di-tert-butyl-5-hydroxyphenyl)-4-oxo-1,4-dihydroquinoline-3-carboxamide; for EC50: test compound added 24 h before assay, potentiator (S)-3-amino-6-methoxy-N-(3,3,3-trifluoro-2-hydroxy-2-methylpropyl)-5-(trifluoromethyl)picolinamide present at assay, mean of at least two replicates, read-out: MTECC24 CFHBEC-EC50
T2 construct: functional activity of the CFTR channel (Chloride ion transport) in patient derived primary human bronchial epithelial cells; host or cells: patient-derived primary human bronchial epithelial cells (HBECs), delF508-CFTR
Description: Measurement of delF508-CFTR Functional Activity in Primary Human Bronchial Epithelial Cells (HBECs) Using Multi-Transepithelial Clamp Circuit (MTECC-24) Assay
This assay measures the functional activity of the CFTR channel (Chloride ion transport) in patient derived primary human bronchial epithelial cells with forskolin activation and in the presence of the CFTR corrector wherein the corrector is a compound of the invention and the potentiator is (S)-3-amino-6-methoxy-N-(3,3,3-trifluoro-2-hydroxy-2-methylpropyl)-5-(trifluoromethyl)picolinamide.
Primary human delF508-CFTR bronchial epithelial cells were purchased from Asterand and cultured according to previously established methods (Fulcher et al. (2005) Methods Mol Med 107: 183-206). Briefly, vendor supplied cells were rapidly defrosted and added to a T175 flask in 50 mL growth media (Lonza BEBM media with Lonza BEGM singlequots). Media was replaced after 24 h and then cells were fed every other day until cells were 80-90% confluent, at which point cells were cryopreserved. These P1 vials were thawed at 37° C. as needed and added to T175 flasks in 50 mL growth media at 5×10^5 cells/flask. Media was replaced after 24 h, and then cells were fed every other day until 80-90% confluent. Cells were lifted with 5 mL Accutase at 37° C. for 5 minutes, centrifuged at 1000 rpms for 5 min (300 g), and resuspended in differentiation media (50% BEBM in DMEM, BEGM singlequots, all trans retinoic acid (5×10·8M)). Cells were then counted and cell suspension was added to collagen coated inserts at 3×10^4 cells/insert in 0.15 mL with 0.5 mL differentiation media on the basolateral side.
Apical and basolateral media were replaced on alternate days, and following day 7 (or when confluent plus 2 days), air liquid interface was established for approximately two weeks by removal of apical media. One day prior to use on the MTECC24 system (EP-Devices, EP Design, Belgium), 0.15 mL of warmed (37° C.) PBS was added to the apical surface of the cultures and returned to humidifier (37° C., 5% CO2 incubator) for 30 min before aspirating the apical surface to remove any mucus.
Compound treatments were then prepared. Compound dilutions, typically a 10 point concentration response with 1 in 3 dilution steps, were made in 100% DMSO before dilution 1 in 1000 into differentiation medium with a final DMSO concentration of 0.1% or 0.2% for the study. Compound containing medium was then transferred into the wells of a 24 well plate at 0.5 mL per well and warmed for 30 min in a 37° C. incubator prior to transferring washed inserts into the compound containing plates. Cells were incubated in compound containing medium (basolateral only) for 24 h prior to measurement in the MTECC24 system.
Following 24 hr treatment, compound dilutions were prepared again, diluted 1 in 1000 into 37° C. assay medium (F-12 Coon's modified, 20 mM HEPES pH7.4 with TRIS Base, No FCS or bicarbonate). Cells which were treated for 24 h with test compound were then transferred into plates containing 0.75 mL compound treatment in assay medium (basolateral) and 0.25 mL of the compound containing assay medium was added to the apical surface. The plates were then transferred to the heated plate compartments of the MTECC24 system for 45 min prior to measurements (this can also be done in a non-CO2 37° C. humidified incubator). Basolateral temperature should not exceed 36.5° C. and apical temperature should be approximately 35.5° C.
Modulators were added sequentially as follows while the MTECC24 instrument recorded the equivalent short circuit current (Ieq)
Prior to dilution into F-12 medium the stocks are as follows: Amiloride stock is 10 mM in H2O
Forskolin Stock is 10 mM in 100% DMSO
(S)-3-amino-6-methoxy-N-(3,3,3-trifluoro-2-hydroxy-2-methylpropyl)-5-(trifluoromethyl)picolinamide is 0.5 mM stock in 100% DMSO INH-172 (4-[[4-Oxo-2-thioxo-3-[3-trifluoromethyl)phenyl]-5-thiazolidinylidene]methyl]benzoic acid) stock is 30 mM in 100% DMSO […]

T2 sequence (P13569 with tags, fused parts or gaps DEL508-508): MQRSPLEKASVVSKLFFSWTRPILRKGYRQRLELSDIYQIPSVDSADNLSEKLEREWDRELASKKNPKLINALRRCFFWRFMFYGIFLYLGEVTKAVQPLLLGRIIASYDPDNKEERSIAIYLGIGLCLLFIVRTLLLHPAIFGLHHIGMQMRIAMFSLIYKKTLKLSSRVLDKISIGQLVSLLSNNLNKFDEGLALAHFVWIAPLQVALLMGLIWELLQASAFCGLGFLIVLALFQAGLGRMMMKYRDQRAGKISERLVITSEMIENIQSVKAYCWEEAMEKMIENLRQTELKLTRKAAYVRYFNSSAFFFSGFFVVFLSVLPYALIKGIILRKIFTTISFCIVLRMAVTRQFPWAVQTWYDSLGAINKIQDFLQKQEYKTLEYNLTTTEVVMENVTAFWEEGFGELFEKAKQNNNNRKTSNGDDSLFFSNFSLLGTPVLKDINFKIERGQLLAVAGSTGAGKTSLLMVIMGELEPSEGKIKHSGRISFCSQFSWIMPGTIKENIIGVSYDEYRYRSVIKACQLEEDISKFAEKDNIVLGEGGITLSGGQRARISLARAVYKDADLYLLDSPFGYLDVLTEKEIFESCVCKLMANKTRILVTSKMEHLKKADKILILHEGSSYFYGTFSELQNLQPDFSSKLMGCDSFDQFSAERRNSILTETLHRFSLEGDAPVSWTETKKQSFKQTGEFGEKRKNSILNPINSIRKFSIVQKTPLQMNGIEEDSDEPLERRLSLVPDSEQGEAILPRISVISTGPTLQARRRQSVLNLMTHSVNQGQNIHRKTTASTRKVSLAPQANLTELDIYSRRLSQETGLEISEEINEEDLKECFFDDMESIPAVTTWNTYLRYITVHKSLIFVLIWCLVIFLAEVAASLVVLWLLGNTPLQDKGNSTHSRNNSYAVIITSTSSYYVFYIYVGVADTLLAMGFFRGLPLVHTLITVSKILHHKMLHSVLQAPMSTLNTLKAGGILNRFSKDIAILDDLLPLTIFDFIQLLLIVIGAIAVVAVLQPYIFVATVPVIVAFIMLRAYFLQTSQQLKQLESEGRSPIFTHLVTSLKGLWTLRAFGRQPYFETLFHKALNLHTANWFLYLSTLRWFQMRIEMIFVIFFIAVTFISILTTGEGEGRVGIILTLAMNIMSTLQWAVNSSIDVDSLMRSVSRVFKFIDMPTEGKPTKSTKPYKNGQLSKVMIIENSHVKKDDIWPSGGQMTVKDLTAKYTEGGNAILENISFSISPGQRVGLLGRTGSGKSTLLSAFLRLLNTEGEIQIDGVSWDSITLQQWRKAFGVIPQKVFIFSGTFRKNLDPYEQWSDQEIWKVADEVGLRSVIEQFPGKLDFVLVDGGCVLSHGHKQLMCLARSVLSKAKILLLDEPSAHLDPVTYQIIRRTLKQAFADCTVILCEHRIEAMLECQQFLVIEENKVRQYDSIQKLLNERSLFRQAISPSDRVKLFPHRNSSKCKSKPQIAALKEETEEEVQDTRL
T1 sequence (P13569 with tags, fused parts or gaps DEL508-508): as above

SMILES | Emax (delF508-CFTR-HRP) | EC50 (delF508-CFTR-HRP) | MTECC24 CFHBEC-Amax % (delF508-CFTR) | EC50 (delF508-CFTR) | DelF508-CFTR-HRP Amax % (delF508-CFTR-HRP)
Cc1ccc(C2CCCCC2)c(OC2(C(=O)NS(=O)(=O)c3cccc(N4CCC5(CCCC5N)CC4)n3)CC2)c1 (single isomer, unassigned) [Example 2-32-1, N-((6-(1-Amino-8-azaspiro[4.5]decan-8-yl)pyridin-2-yl)sulfonyl)-1-(2-cyclohexyl-5-methylphenoxy)cyclopropanecarboxamide] |  | 3350 nM | 78% | 12 nM | 537%
Cc1ccc(C2CCC(F)(F)CC2)c(OC2(C(=O)NS(=O)(=O)c3cccc(N4CCCC(CO)C4)n3)CC2)c1 (single isomer, unassigned) [Example 3-3-2, 1-(2-(4,4-Difluorocyclohexyl)-5-methylphenoxy)-N-((6-(3-(hydroxymethyl)piperidin-1-yl)pyridin-2-yl)sulfonyl)cyclopropane-1-carboxamide] |  | 2760 nM | 78% | 10 nM | 614%
Cc1ccc([C@H]2CC[C@H](F)CC2)c(OC2(C(=O)NS(=O)(=O)c3cccc(N4CC(C)(O)C4)n3)CC2)c1 (single isomer, unassigned) [Example 4-1, 1-(2-(Trans-4-fluorocyclohexyl)-5-methylphenoxy)-N-((6-(3-hydroxy-3-methylazetidin-1-yl)pyridin-2-yl)sulfonyl)cyclopropane-1-carboxamide] | 297% | 4030 nM | 84% | 226 nM | 
C[C@]1(O)CCN(c2cccc(S(=O)(=O)NC(=O)C3(Oc4cc(Cl)ccc4C4CC5(CCC5)C4)CC3)n2)C1 (single isomer, unassigned) [Example 7-2-1] | 674% | 1420 nM | 214.4% | 289 nM | 
Cc1ccc(C2CCC(C)(C)OC2)c(OC2(C(=O)NS(=O)(=O)c3cccc(N4CCC(O)(c5ccc(Cl)cc5)CC4)n3)CC2)c1 (single isomer, unassigned) [Example 11-1-1, N-((6-(4-(4-chlorophenyl)-4-hydroxypiperidin-1-yl)pyridin-2-yl)sulfonyl)-1-(2-(6,6-dimethyltetrahydro-2H-pyran-3-yl)-5-methylphenoxy)cyclopropane-1-carboxamide] |  | 920 nM | 148.8% | 394 nM | 920.6%
CC1(C)CCN(c2ccc(Cl)cc2OC2(C(=O)NS(=O)(=O)c3cccc(N4CCC5(CC4)OCc4ccccc45)n3)CC2)CC1 [Example 10-8, N-((6-(3H-spiro[isobenzofuran-1,4′-piperidin]-1′-yl)pyridin-2-yl)sulfonyl)-1-(5-chloro-2-(4,4-dimethylpiperidin-1-yl)phenoxy)cyclopropanecarboxamide] | 307% | 430 nM |  |  | 
CC1(C)CCN(c2ccc(Cl)cc2OC2(C(=O)NS(=O)(=O)c3cccc(N4CCC(O)(C(F)(F)F)CC4)n3)CC2)CC1 [Example 10-9, 1-(5-chloro-2-(4,4-dimethylpiperidin-1-yl)phenoxy)-N-((6-(4-hydroxy-4-(trifluoromethyl)piperidin-1-yl)pyridin-2-yl)sulfonyl)cyclopropanecarboxamide] | 268% | 460 nM |  |  | 
Cc1cnc(N2CCC(C)(C)CC2)c(OC2(C(=O)NS(=O)(=O)c3cccc(N4CC[C@H](O)C4)n3)CC2)c1 [Example 10-11, (S)-1-((2-(4,4-dimethylpiperidin-1-yl)-5-methylpyridin-3-yl)oxy)-N-((6-(3-hydroxypyrrolidin-1-yl)pyridin-2-yl)sulfonyl)cyclopropanecarboxamide] | 181% | 2950 nM |  |  | 

More lines, in order of falling EC50 (delF508-CFTR-HRP), values ahead:

Emax (delF508-CFTR-HRP) | EC50 (delF508-CFTR-HRP) | MTECC24 CFHBEC-Amax % (delF508-CFTR) | EC50 (delF508-CFTR) | DelF508-CFTR-HRP Amax % (delF508-CFTR-HRP) | SMILES
292% | 4160 nM | 138% | 167 nM |  | Cc1ccc([C@H]2CC[C@@H](F)CC2)c(OC2(C(=O)NS(=O)(=O)c3cccc(N4CC(C)(O)C4)n3)CC2)c1 (single isomer, unassigned) [Example 4-23, 1-(2-(Cis-4-fluorocyclohexyl)-5-methylphenoxy)-N-((6-(3-hydroxy-3-methylazetidin-1-yl)pyridin-2-yl)sulfonyl)cyclopropane-1-carboxamide]
120% | 3980 nM | 66% | 256 nM |  | Cc1ccc(C2CCCCC2)c(OC2(C(=O)NS(=O)(=O)c3cccc(N4C[C@@H]5C[C@@H]5[C@H](N)C4)n3)CC2)c1 (relative stereo) [Example 2-44, N-((6-(5-cis-amino-3-azabicyclo[4.1.0]heptan-3-yl)pyridin-2-yl)sulfonyl)-1-(2-cyclohexyl-5-methylphenoxy)cyclopropane-1-carboxamide]
597% | 2870 nM | 99% | 11 nM |  | Cc1ccc(C2CCC(F)(F)CC2)c(OC2(C(=O)NS(=O)(=O)c3cccc(N4CCCC(CO)C4)n3)CC2)c1 (single isomer, unassigned) [Example 3-3-1]
210% | 2620 nM |  |  |  | CC1(C)CCN(c2ccc(Cl)cc2OC2(C(=O)NS(=O)(=O)c3cccc(N4CCN5C(=O)CCC5C4)n3)CC2)CC1 (stereo not shown) [Example 10-10, 1-(8-chloro-2-(4,4-dimethylpiperidin-1-yl)phenoxy)-N-((6-(6-oxohexahydropyrrolo[1,2-a]pyrazin-2(1H)-yl)pyridin-2-yl)sulfonyl)cyclopropanecarboxamide]
314% | 2180 nM | 138% | 156 nM |  | Cc1ccc(C2CCC(F)(F)C2)c(OC2(C(=O)NS(=O)(=O)c3cccc(N4CCC[C@@H](CO)C4)n3)CC2)c1 (single isomer, unassigned) [Example 4-7]
 | 1780 nM | 100.3% | 757 nM | 361.4% | Cc1ccc(C2CCC(C)(C)OC2)c(OC2(C(=O)NS(=O)(=O)c3cccc(N4CCC(O)(C(F)(F)F)CC4)n3)CC2)c1 (single isomer, unassigned) [Example 11-2-2, 1-(2-(6,6-Dimethyltetrahydro-2H-pyran-3-yl)-5-methylphenoxy)-N-((6-(4-hydroxy-4-(trifluoromethyl)piperidin-1-yl)pyridin-2-yl)sulfonyl)cyclopropane-1-carboxamide]
 | 900 nM | 191.0% | 176 nM | 819.2% | Cc1ccc(C2CCC(C)(C)OC2)c(OC2(C(=O)NS(=O)(=O)c3cccc(N4CCC(O)(c5ccc(Cl)cc5)CC4)n3)CC2)c1 (single isomer, unassigned) [Example 11-1-2, N-((6-(4-(4-chlorophenyl)-4-hydroxypiperidin-1-yl)pyridin-2-yl)sulfonyl)-1-(2-(6,6-dimethyltetrahydro-2H-pyran-3-yl)-5-methylphenoxy)cyclopropane-1-carboxamide]
